# Organism: Rattus norvegicus
# Assay: DrugMatrix - Regimen: Daily Repeat
# Format: toxicity, organism-based, Sprague-Dawley
# Set-up: regimen Daily Repeat, gender Male, age 6-8 weeks
# Conditions: in vivo, po, route oral GAVAGE, vehicle 100 % WATER; for ABSOLUTE BASOPHIL / ABSOLUTE EOSINOPHIL / ABSOLUTE LYMPHOCYTE / ABSOLUTE MONOCYTE / ABSOLUTE SEGMENTED NEUTROPHIL / BASOPHIL / EOSINOPHIL / ERYTHROCYTE COUNT / HEMATOCRIT / HEMOGLOBIN / LEUKOCYTE COUNT / LYMPHOCYTE / MEAN CORPUSCULAR HEMOGLOBIN / MEAN CORPUSCULAR HEMOGLOBIN CONCENTRATION / MEAN CORPUSCULAR VOLUME / MONOCYTE / NEUTROPHIL / NUCLEATED RED BLOOD CELLS / PLATELET COUNT: tissue Blood; for ALANINE AMINOTRANSFERASE / ALBUMIN / ALKALINE PHOSPHATASE / ASPARTATE AMINOTRANSFERASE / BLOOD UREA NITROGEN / CARBON DIOXIDE / CHLORIDE / CHOLESTEROL / CREATINE PHOSPHOKINASE / CREATININE / GLUCOSE / LACTATE DEHYDROGENASE / LIPASE / PHOSPHORUS / POTASSIUM / SODIUM / TOTAL BILIRUBIN / TOTAL PROTEIN / URIC ACID: tissue Plasma
# [1] = 20 mg/kg, 120 h, dose level Low, time 5 day
# [2] = 70 mg/kg, 72 h, dose level High, time 3 day
# [3] = 70 mg/kg, 120 h, dose level High, time 5 day
smiles,measurement,setting,value
CCCC(C)C1(CC)C(=O)NC(=O)NC1=O (centres undefined) [PENTOBARBITAL],ABSOLUTE BASOPHIL,[1],0 CELLS/uL
same,ABSOLUTE EOSINOPHIL,[1],0 CELLS/uL
same,ABSOLUTE LYMPHOCYTE,[1],9855 CELLS/uL
same,ABSOLUTE MONOCYTE,[1],58 CELLS/uL
same,ABSOLUTE SEGMENTED NEUTROPHIL,[1],1187 CELLS/uL
same,BASOPHIL,[1],0%
same,EOSINOPHIL,[1],0%
same,ERYTHROCYTE COUNT,[1],5.44 x10E6/uL
same,HEMATOCRIT,[1],34.1%
same,HEMOGLOBIN,[1],13.23 G/DL
same,LEUKOCYTE COUNT,[1],11.1 x10E3/uL
same,LYMPHOCYTE,[1],89%
same,MEAN CORPUSCULAR HEMOGLOBIN,[1],24.33 pg
same,MEAN CORPUSCULAR HEMOGLOBIN CONCENTRATION,[1],38.83 G/DL
same,MEAN CORPUSCULAR VOLUME,[1],62.67 fL
same,MONOCYTE,[1],0.67%
same,NEUTROPHIL,[1],10.33%
same,NUCLEATED RED BLOOD CELLS,[1],0 /100WBC
same,PLATELET COUNT,[1],1231.67 x10E3/uL
same,ALANINE AMINOTRANSFERASE,[1],60.33 u/L
same,ALBUMIN,[1],3.8 G/DL
same,ALKALINE PHOSPHATASE,[1],346 u/L
same,ASPARTATE AMINOTRANSFERASE,[1],88.33 u/L
same,BLOOD UREA NITROGEN,[1],17 mg/dL
same,CARBON DIOXIDE,[1],32.67 mmol/L
same,CHLORIDE,[1],99.33 MEQ/L
same,CHOLESTEROL,[1],71.67 mg/dL
same,CREATINE PHOSPHOKINASE,[1],344.67 u/L
same,CREATININE,[1],0.19 mg/dL
same,GLUCOSE,[1],155 mg/dL
same,LACTATE DEHYDROGENASE,[1],163 u/L
same,LIPASE,[1],8.67 u/L
same,PHOSPHORUS,[1],11.17 mg/dL
same,POTASSIUM,[1],5.63 MEQ/L
same,SODIUM,[1],145.17 MEQ/L
same,TOTAL BILIRUBIN,[1],0.17 mg/dL
same,TOTAL PROTEIN,[1],5.63 G/DL
same,URIC ACID,[1],0.67 mg/dL
same,ABSOLUTE BASOPHIL,[2],0 CELLS/uL
same,ABSOLUTE EOSINOPHIL,[2],29 CELLS/uL
same,ABSOLUTE LYMPHOCYTE,[2],9707 CELLS/uL
same,ABSOLUTE MONOCYTE,[2],106.67 CELLS/uL
same,ABSOLUTE SEGMENTED NEUTROPHIL,[2],824 CELLS/uL
same,BASOPHIL,[2],0%
same,EOSINOPHIL,[2],0.33%
same,ERYTHROCYTE COUNT,[2],5.46 x10E6/uL
same,HEMATOCRIT,[2],34.73%
same,HEMOGLOBIN,[2],13.4 G/DL
same,LEUKOCYTE COUNT,[2],10.67 x10E3/uL
same,LYMPHOCYTE,[2],91%
same,MEAN CORPUSCULAR HEMOGLOBIN,[2],24.57 pg
same,MEAN CORPUSCULAR HEMOGLOBIN CONCENTRATION,[2],38.63 G/DL
same,MEAN CORPUSCULAR VOLUME,[2],63.53 fL
same,MONOCYTE,[2],1%
same,NEUTROPHIL,[2],7.67%
same,NUCLEATED RED BLOOD CELLS,[2],0 /100WBC
same,PLATELET COUNT,[2],792 x10E3/uL
same,ALANINE AMINOTRANSFERASE,[2],58 u/L
same,ALBUMIN,[2],4.2 G/DL
same,ALKALINE PHOSPHATASE,[2],300.33 u/L
same,ASPARTATE AMINOTRANSFERASE,[2],75.67 u/L
same,BLOOD UREA NITROGEN,[2],13 mg/dL
same,CARBON DIOXIDE,[2],34.67 mmol/L
same,CHLORIDE,[2],101.33 MEQ/L
same,CHOLESTEROL,[2],81.33 mg/dL
same,CREATINE PHOSPHOKINASE,[2],230 u/L
same,CREATININE,[2],0.16 mg/dL
same,GLUCOSE,[2],139 mg/dL
same,LACTATE DEHYDROGENASE,[2],113.33 u/L
same,LIPASE,[2],9 u/L
same,PHOSPHORUS,[2],11.77 mg/dL
same,POTASSIUM,[2],6.23 MEQ/L
same,SODIUM,[2],146.57 MEQ/L
same,TOTAL BILIRUBIN,[2],0.2 mg/dL
same,TOTAL PROTEIN,[2],6.17 G/DL
same,URIC ACID,[2],0.73 mg/dL
same,ABSOLUTE BASOPHIL,[3],0 CELLS/uL
same,ABSOLUTE EOSINOPHIL,[3],23.33 CELLS/uL
same,ABSOLUTE LYMPHOCYTE,[3],7811.33 CELLS/uL
same,ABSOLUTE MONOCYTE,[3],0 CELLS/uL
same,ABSOLUTE SEGMENTED NEUTROPHIL,[3],598.67 CELLS/uL
same,BASOPHIL,[3],0%
same,EOSINOPHIL,[3],0.33%
same,ERYTHROCYTE COUNT,[3],5.7 x10E6/uL
same,HEMATOCRIT,[3],36%
same,HEMOGLOBIN,[3],13.73 G/DL
same,LEUKOCYTE COUNT,[3],8.43 x10E3/uL
same,LYMPHOCYTE,[3],92.33%
same,MEAN CORPUSCULAR HEMOGLOBIN,[3],24.1 pg
same,MEAN CORPUSCULAR HEMOGLOBIN CONCENTRATION,[3],38.17 G/DL
same,MEAN CORPUSCULAR VOLUME,[3],63.17 fL
same,MONOCYTE,[3],0%
same,NEUTROPHIL,[3],7.33%
same,NUCLEATED RED BLOOD CELLS,[3],0 /100WBC
same,PLATELET COUNT,[3],1184.67 x10E3/uL
same,ALANINE AMINOTRANSFERASE,[3],60 u/L
same,ALBUMIN,[3],4.2 G/DL
same,ALKALINE PHOSPHATASE,[3],346 u/L
same,ASPARTATE AMINOTRANSFERASE,[3],81 u/L
same,BLOOD UREA NITROGEN,[3],14 mg/dL
same,CARBON DIOXIDE,[3],33 mmol/L
same,CHLORIDE,[3],99 MEQ/L
same,CHOLESTEROL,[3],74.33 mg/dL
same,CREATINE PHOSPHOKINASE,[3],461.33 u/L
same,CREATININE,[3],0.13 mg/dL
same,GLUCOSE,[3],131.67 mg/dL
same,LACTATE DEHYDROGENASE,[3],142.67 u/L
same,LIPASE,[3],11.67 u/L
same,PHOSPHORUS,[3],10.57 mg/dL
same,POTASSIUM,[3],5.73 MEQ/L
same,SODIUM,[3],145.3 MEQ/L
same,TOTAL BILIRUBIN,[3],0.2 mg/dL
same,TOTAL PROTEIN,[3],6.17 G/DL
same,URIC ACID,[3],0.53 mg/dL
